Results on 19 compounds are retold here after paper PMC5093981 (Malaria Journal, 2016).

The test system of test [1] is PfRuvB3. Description: PfRuvB3 unwinding activity: requirement of co-factors and effects of salt/EDTA. In kind it is biochemical, Plasmodium falciparum. As to conditions: for Relative activity (%), PfRuvB3 unwinding activity: standard reaction = 35. The method, then: (§1) Unwinding of [^32P]-labelled partial duplex DNA was employed as a measurement of helicase activity. The reaction mixture (10 µl) contained 20 mM Tris–HCl pH 9.0, 8 mM DTT, 2 mM MgCl2, 2 mM ATP, 10 mM KCl, 4% (w/v) sucrose, […] BSA, [^32P]-labelled DNA duplex substrate (Table 1) and purified PfRuvB3. The assay was performed at 37 °C for 90 min (unless indicated otherwise) and terminated with addition of 10X DNA loading dye (Fermentas, USA) and further incubation at 37 °C for 5 min. Helicase substrate and product were separated by 12% non-denaturing PAGE and then the gel was exposed to an X-ray film. DNA unwinding was quantified by densitometric analysis of exposed substrate and product bands using GeneTools (Syngene). Percent unwinding is calculated using the following formula: [band density of product [single-stranded (ss)DNA] / (band density of ssDNA + band density of substrate (duplex DNA)] × 100 minus [percent unwinding in the absence of enzyme].
The ability of PfRuvB3 to hydrolyze different NTPs was studied by including 2 mM dATP, dCTP, dGTP, or dTTP in place of ATP in the standard reaction assay. The effects of ATP concentrations ranging from 0.3 to 20 mM on helicase activity were also determined. Divalent cation requirement was investigated mixture 2 mM CaCl2, CuCl2, NiSO4, ZnCl2, FeSO4, MnCl2 or MgSO4 in place of MgCl2. Effects of salt (0-200 mM NaCl in place of 10 mM KCl) and EDTA (5 mM) also were evaluated.

Test [2] concerns the target PfRuvB3. Put plainly: Effect of DNA helicase inhibitors on PfRuvB3 unwinding (helicase) activity. The format is biochemical, Plasmodium falciparum. As to conditions: recombinant PfRuvB3; M13-17-mer duplex DNA pre-incubated with 0.1 to 50 μM drug for 10 min; 37 °C 90 min. As to the method:
as §1
Known DNA helicase inhibitors, aphidicolin genistein, daunorubicin, doxorubicin, mitoxantrone, and netropsin (Sigma, USA) were prepared as 10^−2 M stock solutions in dimethylsulfoxide (DMSO) and stored at −20 °C until used. All compounds were diluted with 10 mM Tris–HCl, pH 9.0 to specified concentrations for the assay. M13-17-mer duplex DNA was pre-incubated with 0.1 to 50 μM drug for 10 min prior to addition to the standard helicase assay mixture. The 0.5% (v/v final concentration) of DMSO was used as solvent control to determine its effects on helicase activity. The dose–response curves of relative activities of PfRuvB3 and various drug concentrations were generated, and half-maximal inhibitory concentration (IC50), the concentration of compound to inhibit enzyme activity by 50%, was obtained using GraphPad Prism 6.01 software.

Test [3] deals with P. falciparum DNA helicase A (PfDH A). The arrangement: method as in PMID 16772048. As to conditions: cited from earlier work.
Test [4] addresses P. falciparum UvrD helicase (PfUDN). The note with it: cited from earlier work.
Test [5] addresses P. falciparum 45 kDa helicase (PfH45). Set-up: method as in PMID 17822710. The note with it: cited from earlier work.
In test [6] the target is P. falciparum 60 kDa DNA helicase (PfDH60). Set-up: method as in PMID 16884495. The note with it: cited from earlier work.
In test [7] the target is human DNA helicase (HDH II). The arrangement: method as in PMID 1614415. As to conditions: cited from earlier work.
The next test has as its system parasite growth. Set-up: method as in PMID 16772048. The note with it: read-out: IC50, parasite growth inhibition; cited from earlier work.
For test [8], the system named is P. falciparum Dbp5/DDX19 homolog (PfD66). The arrangement: method as in PMID 21980563. As to conditions: cited from earlier work.
The mark [9] stands for this setting: 2 mM divalent cation salt in place of MgCl2, 1 μg PfRuvB3.
The mark [10] stands for this setting: 2 mM dNTP in place of ATP, 1 μg PfRuvB3.

In the case of `[Cl][Cu][Cl]` [CuCl2], the “Relative activity (%), PfRuvB3 unwinding activity” value (shortened to “Relative activity (%)”) with PfRuvB3 [1] (setting [9]) worked out at 36%.

With `[Cl-].[Na+]` [NaCl], the “Unwinding activity of PfRuvB3” value in the test with PfRuvB3 [1] (100 mM NaCl) was “almost absent”. Further, the “Relative activity (%)” value with PfRuvB3 [1] (+NaCl (200 mM)) is given as less than 2%. Besides, the Enzyme activity inhibited in the test on PfRuvB3 [1] (NaCl 200 mM) is recorded as approximately 98%.

Take `Nc1ccn([C@H]2C[C@H](O)[C@@H](COP(=O)(O)OP(=O)(O)OP(=O)(O)O)O2)c(=O)n1` [dCTP]: in the test on PfRuvB3 [1] (setting [10]), the “Relative activity (%)” value is listed as less than 2%.

For `O=S(=O)([O-])[O-].[Fe+2]` [FeSO4], the “Relative activity (%)” value with PfRuvB3 [1] (setting [9]) was less than 2%.

With `O=S(=O)([O-])[O-].[Mg+2]` [MgSO4], in the test on PfRuvB3 [1] (setting [9]), the “Relative activity (%)” value amounted to 37%.

In general, IC50 refers to the midpoint of a concentration-inhibition curve. Take `C[C@@]1(CO)[C@H](O)CC[C@@]2(C)[C@H]1CC[C@H]1C[C@@H]3C[C@@]12CC[C@]3(O)CO` [aphidicolin]: the IC50 on PfRuvB3 [2] was more than 50 µM.

On to `Cc1cn([C@H]2C[C@H](O)[C@@H](COP(=O)(O)OP(=O)(O)OP(=O)(O)O)O2)c(=O)[nH]c1=O` [dTTP], for which, in the test on PfRuvB3 [1] (setting [10]), the “Relative activity (%)” value is on record as less than 2%.

For the compound `O=C1c2c(O)ccc(O)c2C(=O)c2c(NCCNCCO)ccc(NCCNCCO)c21` [mitoxantrone], the concentration for half-maximal inhibition (IC50) on PfRuvB3 [2] is more than 50 µM.

Consider `[Cl][Ni][Cl]` [NiCl2], for which the “Relative activity (%)” value with PfRuvB3 [1] (setting [9]) was determined as 34%.

For the compound `[Ca+2].[Cl-].[Cl-]` [CaCl2], the “Relative activity (%)” value with PfRuvB3 [1] (setting [9]) was less than 2%.

Regarding `COc1cccc2c1C(=O)c1c(O)c3c(c(O)c1C2=O)C[C@@](O)(C(C)=O)C[C@@H]3O[C@H]1C[C@H](N)[C@H](O)[C@H](C)O1` [daunorubicin], the IC50 on PfRuvB3 [2] was 0.76 µM; in [3] it was 2 µM; in test [4], 4.4 µM; in test [5] it was 5 µM; in [6], 3 µM; in test [7], 6.23 µM. Moreover, the half-maximal inhibitory concentration (IC50) with parasite growth is 2.5 µM.

Turning to `O=c1c(-c2ccc(O)cc2)coc2cc(O)cc(O)c12` [genistein], the IC50 at PfRuvB3 [2] was more than 50 µM.

Take `Nc1ncnc2c1ncn2[C@H]1C[C@H](O)[C@@H](COP(=O)(O)OP(=O)(O)OP(=O)(O)O)O1` [dATP]: the “Relative activity (%)” value in the test on PfRuvB3 [1] (setting [10]) was 33%.

For `COc1cccc2c1C(=O)c1c(O)c3c(c(O)c1C2=O)C[C@@](O)(C(=O)CO)C[C@@H]3O[C@H]1C[C@H](N)[C@H](O)[C@H](C)O1` [doxorubicin], the figures for the half-inhibitory concentration (IC50) at PfRuvB3 [2] and in the test on parasite growth were 2.6 µM and 1.5 µM, respectively.

On to `Cn1cc(NC(=O)c2cc(NC(=O)CN=C(N)N)cn2C)cc1C(=O)NCCC(=N)N` [netropsin], for which the half-maximal inhibitory concentration (IC50) is 7.09 µM on PfRuvB3 [2]; 3.3 µM in test [4]; 0.8 µM in test [5]; 0.5 µM in test [6]; 3.2 µM in test [8].

In the case of `Nc1nc2c(ncn2[C@H]2C[C@H](O)[C@@H](COP(=O)(O)OP(=O)(O)OP(=O)(O)O)O2)c(=O)[nH]1` [dGTP], the “Relative activity (%)” value in the test with PfRuvB3 [1] (setting [10]) is reported as less than 2%.

Regarding `[Cl][Mn][Cl]` [MnCl2], in the test on PfRuvB3 [1] (setting [9]), the “Relative activity (%)” value is less than 2%.

For the compound `[Cl-].[Cl-].[Zn+2]` [ZnCl2], in the test with PfRuvB3 [1] (setting [9]), the “Relative activity (%)” value turned out to be 30%.

Take `O=C(O)CN(CCN(CC(=O)O)CC(=O)O)CC(=O)O` [EDTA]: in the test on PfRuvB3 [1] (+EDTA (5 mM)), the “Relative activity (%)” value was less than 2%. Also, in the test with PfRuvB3 [1] (EDTA 5 mM added to reaction mixture), the Helicase function entry is recorded as “complete loss of helicase function”.
